Measurements taken from the kinase profiling compilation of Christmann-Franck et al. (2016).

Tests used:
Assay in all cases: KINOMEscan competition binding
Conditions in all cases: compound 1.0 µM
[1] = target: MKNK2 (human) (UniProt Q9HBH9)
[2] = target: CDC42BPB (human) (UniProt Q9Y5S2)
[3] = system: MET (human), P08581 [M1250T]
[4] = target: MAP3K5 (human) (UniProt Q99683)
[5] = target: NEK6 (human) (UniProt Q9HC98)
[6] = target: CLK4 (human) (UniProt Q9HAZ1)
[7] = system: EGFR (human), P00533 [752-759 del]
[8] = target: IGF1R (human) (UniProt P08069)
[9] = target: STK32B (human) (UniProt Q9NY57)
[10] = target: EPHA8 (human) (UniProt P29322)
[11] = target: PRKAA2 (human) (UniProt P54646)
[12] = target: MELK (human) (UniProt Q14680)
[13] = target: PIK3CG (human) (UniProt P48736)
[14] = target: ALK (human) (UniProt Q9UM73)
[15] = target: MTOR (human) (UniProt P42345)
[16] = target: MAP3K2 (human) (UniProt Q9Y2U5)
[17] = target: PRKAA1 (human) (UniProt Q13131)
[18] = target: CLK2 (human) (UniProt P49760)
[19] = target: MAPK7 (human) (UniProt Q13164)
[20] = target: RPS6KA2 KD2 (human) (UniProt Q15349)
[21] = target: CDKL5 (human) (UniProt O76039)
[22] = target: PIK3CB (human) (UniProt P42338)
[23] = target: TEC (human) (UniProt P42680)
[24] = system: RET (human), P07949 [M918T]
[25] = target: PIM1 (human) (UniProt P11309)
[26] = target: FGFR3 (human) (UniProt P22607)
[27] = target: CDK2 (human) (UniProt P24941)
[28] = target: CHUK (human) (UniProt O15111)
[29] = target: INSR (human) (UniProt P06213)
[30] = system: EGFR (human), P00533 [L858R]
[31] = target: PIM3 (human) (UniProt Q86V86)
[32] = target: BTK (human) (UniProt Q06187)
[33] = system: EGFR (human), P00533 [747-751 del / S ins]
[34] = system: RET (human), P07949 [V804M]
[35] = target: MAP2K4 (human) (UniProt P45985)
[36] = target: MAPKAPK2 (human) (UniProt P49137)
[37] = target: HUNK (human) (UniProt P57058)
[38] = target: NEK9 (human) (UniProt Q8TD19)
[39] = target: MAP3K9 (human) (UniProt P80192)
[40] = target: EPHA5 (human) (UniProt P54756)
[41] = target: EPHB6 (human) (UniProt O15197)
[42] = target: STK16 (human) (UniProt O75716)
[43] = target: DYRK1A (human) (UniProt Q13627)

Sequence of HUNK (human) (P57058 whole entry, looked up): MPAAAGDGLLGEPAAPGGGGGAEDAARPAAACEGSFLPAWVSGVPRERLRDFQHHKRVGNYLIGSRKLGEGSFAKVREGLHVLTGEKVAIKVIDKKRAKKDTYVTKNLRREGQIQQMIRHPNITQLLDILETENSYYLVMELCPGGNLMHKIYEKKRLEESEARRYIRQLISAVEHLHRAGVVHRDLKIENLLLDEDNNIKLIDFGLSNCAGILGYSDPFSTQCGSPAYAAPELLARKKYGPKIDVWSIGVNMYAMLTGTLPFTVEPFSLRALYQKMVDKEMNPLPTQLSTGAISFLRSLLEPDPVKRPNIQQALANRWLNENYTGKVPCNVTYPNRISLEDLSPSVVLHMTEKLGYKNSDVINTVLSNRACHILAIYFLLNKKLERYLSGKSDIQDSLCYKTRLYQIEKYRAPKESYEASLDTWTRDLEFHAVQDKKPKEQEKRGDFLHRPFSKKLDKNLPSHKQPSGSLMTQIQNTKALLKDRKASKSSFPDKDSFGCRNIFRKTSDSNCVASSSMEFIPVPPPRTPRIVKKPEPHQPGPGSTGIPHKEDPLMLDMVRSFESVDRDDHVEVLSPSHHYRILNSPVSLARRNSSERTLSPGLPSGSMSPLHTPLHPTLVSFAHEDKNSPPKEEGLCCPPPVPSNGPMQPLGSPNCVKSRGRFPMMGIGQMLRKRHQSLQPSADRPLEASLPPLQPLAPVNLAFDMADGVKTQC
Sequence of CDC42BPB (human) (Q9Y5S2 whole entry, looked up): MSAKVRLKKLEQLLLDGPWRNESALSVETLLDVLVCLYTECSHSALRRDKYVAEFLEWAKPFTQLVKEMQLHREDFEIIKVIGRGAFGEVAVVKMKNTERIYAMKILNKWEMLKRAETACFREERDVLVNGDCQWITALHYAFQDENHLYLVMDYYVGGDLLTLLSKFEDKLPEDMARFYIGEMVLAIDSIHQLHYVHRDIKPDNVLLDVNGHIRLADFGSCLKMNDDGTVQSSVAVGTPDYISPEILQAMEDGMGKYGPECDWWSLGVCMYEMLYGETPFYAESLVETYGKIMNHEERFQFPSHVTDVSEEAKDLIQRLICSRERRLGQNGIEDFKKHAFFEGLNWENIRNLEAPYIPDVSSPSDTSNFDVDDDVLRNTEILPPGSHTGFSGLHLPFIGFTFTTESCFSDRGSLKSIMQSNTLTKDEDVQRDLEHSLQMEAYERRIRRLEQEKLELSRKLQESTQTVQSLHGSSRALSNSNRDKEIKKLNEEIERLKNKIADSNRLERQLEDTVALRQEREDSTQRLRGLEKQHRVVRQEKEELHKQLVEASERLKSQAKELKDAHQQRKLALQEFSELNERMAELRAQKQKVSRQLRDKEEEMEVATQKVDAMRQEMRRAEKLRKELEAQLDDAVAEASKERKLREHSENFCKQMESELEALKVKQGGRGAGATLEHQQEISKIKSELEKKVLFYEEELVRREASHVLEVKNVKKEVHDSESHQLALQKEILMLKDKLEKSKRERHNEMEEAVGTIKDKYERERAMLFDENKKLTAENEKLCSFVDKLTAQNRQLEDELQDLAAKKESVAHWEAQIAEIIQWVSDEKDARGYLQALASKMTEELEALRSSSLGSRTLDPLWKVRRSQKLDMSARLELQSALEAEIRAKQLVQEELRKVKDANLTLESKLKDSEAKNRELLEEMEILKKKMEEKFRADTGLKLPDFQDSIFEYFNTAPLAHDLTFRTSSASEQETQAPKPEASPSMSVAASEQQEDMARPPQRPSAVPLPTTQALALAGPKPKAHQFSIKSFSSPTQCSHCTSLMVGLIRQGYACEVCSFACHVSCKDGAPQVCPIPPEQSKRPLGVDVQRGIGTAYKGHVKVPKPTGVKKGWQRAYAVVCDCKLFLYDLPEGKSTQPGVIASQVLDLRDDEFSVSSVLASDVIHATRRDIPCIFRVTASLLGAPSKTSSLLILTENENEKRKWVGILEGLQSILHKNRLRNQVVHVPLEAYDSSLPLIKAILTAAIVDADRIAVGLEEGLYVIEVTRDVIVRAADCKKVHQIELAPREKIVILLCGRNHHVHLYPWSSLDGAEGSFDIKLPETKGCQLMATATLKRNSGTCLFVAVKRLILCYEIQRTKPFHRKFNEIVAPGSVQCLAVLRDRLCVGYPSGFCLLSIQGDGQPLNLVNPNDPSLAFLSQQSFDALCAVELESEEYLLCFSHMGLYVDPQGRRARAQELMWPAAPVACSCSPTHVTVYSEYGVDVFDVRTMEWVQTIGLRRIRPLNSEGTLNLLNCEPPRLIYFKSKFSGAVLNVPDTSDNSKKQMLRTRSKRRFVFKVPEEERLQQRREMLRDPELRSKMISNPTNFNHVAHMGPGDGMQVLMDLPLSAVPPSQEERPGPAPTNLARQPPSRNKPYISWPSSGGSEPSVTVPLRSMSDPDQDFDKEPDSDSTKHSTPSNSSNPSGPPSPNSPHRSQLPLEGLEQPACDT
Sequence of CLK2 (human) (P49760 whole entry, looked up): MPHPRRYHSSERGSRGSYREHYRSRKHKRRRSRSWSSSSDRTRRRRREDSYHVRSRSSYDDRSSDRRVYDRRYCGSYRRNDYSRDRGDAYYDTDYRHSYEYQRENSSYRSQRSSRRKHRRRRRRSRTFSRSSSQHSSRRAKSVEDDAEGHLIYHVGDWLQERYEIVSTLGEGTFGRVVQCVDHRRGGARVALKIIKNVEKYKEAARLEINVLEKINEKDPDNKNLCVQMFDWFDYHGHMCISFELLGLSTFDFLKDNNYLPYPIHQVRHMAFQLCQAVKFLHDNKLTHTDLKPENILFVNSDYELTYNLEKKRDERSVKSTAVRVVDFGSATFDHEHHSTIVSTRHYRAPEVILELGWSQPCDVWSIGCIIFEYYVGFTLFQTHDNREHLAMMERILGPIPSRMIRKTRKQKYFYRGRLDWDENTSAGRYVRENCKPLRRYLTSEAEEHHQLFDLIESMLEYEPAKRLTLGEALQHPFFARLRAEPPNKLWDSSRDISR
Sequence of EPHA8 (human) (P29322 whole entry, looked up): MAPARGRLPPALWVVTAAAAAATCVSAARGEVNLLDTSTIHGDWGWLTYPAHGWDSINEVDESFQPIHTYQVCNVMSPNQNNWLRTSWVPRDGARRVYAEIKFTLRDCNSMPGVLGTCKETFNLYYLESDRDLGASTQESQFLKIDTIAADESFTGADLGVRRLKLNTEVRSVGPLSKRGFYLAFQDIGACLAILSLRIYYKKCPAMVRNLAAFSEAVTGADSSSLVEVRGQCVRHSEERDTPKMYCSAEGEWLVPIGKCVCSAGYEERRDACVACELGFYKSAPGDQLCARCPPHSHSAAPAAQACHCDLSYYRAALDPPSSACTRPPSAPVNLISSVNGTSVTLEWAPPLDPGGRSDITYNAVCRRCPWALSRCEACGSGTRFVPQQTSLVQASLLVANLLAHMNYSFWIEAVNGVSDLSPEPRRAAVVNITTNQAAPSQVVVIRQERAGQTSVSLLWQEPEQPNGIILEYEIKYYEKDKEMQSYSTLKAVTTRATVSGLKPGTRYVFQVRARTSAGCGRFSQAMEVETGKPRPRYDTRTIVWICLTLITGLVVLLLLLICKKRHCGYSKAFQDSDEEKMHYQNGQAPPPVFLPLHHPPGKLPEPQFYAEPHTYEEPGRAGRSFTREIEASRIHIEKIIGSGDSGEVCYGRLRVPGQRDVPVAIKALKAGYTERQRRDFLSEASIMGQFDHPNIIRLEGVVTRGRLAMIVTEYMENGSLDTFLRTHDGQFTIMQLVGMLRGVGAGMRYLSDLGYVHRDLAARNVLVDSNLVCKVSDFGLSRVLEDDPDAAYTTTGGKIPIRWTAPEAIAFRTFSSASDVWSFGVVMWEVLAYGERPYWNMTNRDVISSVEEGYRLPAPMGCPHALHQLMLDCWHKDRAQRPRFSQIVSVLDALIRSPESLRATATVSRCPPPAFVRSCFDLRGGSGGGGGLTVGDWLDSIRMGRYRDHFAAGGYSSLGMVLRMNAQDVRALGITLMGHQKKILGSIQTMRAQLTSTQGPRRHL
Sequence of CDKL5 (human) (O76039 whole entry, looked up): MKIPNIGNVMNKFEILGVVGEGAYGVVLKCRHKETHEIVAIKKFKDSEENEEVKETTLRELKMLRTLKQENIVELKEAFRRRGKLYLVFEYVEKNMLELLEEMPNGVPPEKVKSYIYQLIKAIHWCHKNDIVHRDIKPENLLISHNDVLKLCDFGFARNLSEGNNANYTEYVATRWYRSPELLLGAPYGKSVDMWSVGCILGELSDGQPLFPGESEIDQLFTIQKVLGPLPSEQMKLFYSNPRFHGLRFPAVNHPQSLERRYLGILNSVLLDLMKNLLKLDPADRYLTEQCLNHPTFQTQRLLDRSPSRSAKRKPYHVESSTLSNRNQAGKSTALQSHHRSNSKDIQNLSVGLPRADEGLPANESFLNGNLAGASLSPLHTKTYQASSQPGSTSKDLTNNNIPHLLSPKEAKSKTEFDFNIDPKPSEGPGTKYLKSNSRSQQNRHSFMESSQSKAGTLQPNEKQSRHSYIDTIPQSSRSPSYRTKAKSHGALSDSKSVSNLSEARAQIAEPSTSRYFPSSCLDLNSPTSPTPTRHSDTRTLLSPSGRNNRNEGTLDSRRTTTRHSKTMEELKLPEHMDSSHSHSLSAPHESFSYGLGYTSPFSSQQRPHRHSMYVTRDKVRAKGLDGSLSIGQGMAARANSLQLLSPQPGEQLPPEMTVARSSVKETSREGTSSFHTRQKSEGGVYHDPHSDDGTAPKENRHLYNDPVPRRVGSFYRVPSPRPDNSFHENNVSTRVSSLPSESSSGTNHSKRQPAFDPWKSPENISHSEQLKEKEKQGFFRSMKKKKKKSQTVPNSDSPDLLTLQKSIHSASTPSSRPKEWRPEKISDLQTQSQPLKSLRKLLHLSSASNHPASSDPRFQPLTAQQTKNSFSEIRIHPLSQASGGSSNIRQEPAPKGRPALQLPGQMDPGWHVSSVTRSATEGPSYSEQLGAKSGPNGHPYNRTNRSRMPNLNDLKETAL

SMILES: Cc1cc(NC(=O)c2cccc(NC(=O)/C=C/CN(C)C)c2)ccc1Nc1nccc(-c2cccnc2)n1
- kinase still bound, per cent of control [1]: 6.8%
- kinase still bound, per cent of control [2]: 68%
- kinase still bound, per cent of control [3]: 6.2%
- kinase still bound, per cent of control [4]: 100%
- kinase still bound, per cent of control [5]: 100%
- kinase still bound, per cent of control [6]: 93%
- kinase still bound, per cent of control [7]: 79%
- kinase still bound, per cent of control [8]: 93%
- kinase still bound, per cent of control [9]: 90%
- kinase still bound, per cent of control [10]: 100%
- kinase still bound, per cent of control [11]: 84%
- kinase still bound, per cent of control [12]: 71%
- kinase still bound, per cent of control [13]: 100%
- kinase still bound, per cent of control [14]: 85%
- kinase still bound, per cent of control [15]: 100%
- kinase still bound, per cent of control [16]: 100%
- kinase still bound, per cent of control [17]: 100%
- kinase still bound, per cent of control [18]: 95%
- kinase still bound, per cent of control [19]: 100%
- kinase still bound, per cent of control [20]: 100%
- kinase still bound, per cent of control [21]: 100%
- kinase still bound, per cent of control [22]: 79%
- kinase still bound, per cent of control [23]: 100%
- kinase still bound, per cent of control [24]: 90%
- kinase still bound, per cent of control [25]: 100%
- kinase still bound, per cent of control [26]: 100%
- kinase still bound, per cent of control [27]: 77%
- kinase still bound, per cent of control [28]: 100%
- kinase still bound, per cent of control [29]: 14%
- kinase still bound, per cent of control [30]: 100%
- kinase still bound, per cent of control [31]: 56%
- kinase still bound, per cent of control [32]: 100%
- kinase still bound, per cent of control [33]: 95%
- kinase still bound, per cent of control [34]: 100%
- kinase still bound, per cent of control [35]: 70%
- kinase still bound, per cent of control [36]: 100%
- kinase still bound, per cent of control [37]: 53%
- kinase still bound, per cent of control [38]: 100%
- kinase still bound, per cent of control [39]: 100%
- kinase still bound, per cent of control [40]: 100%
- kinase still bound, per cent of control [41]: 71%
- kinase still bound, per cent of control [42]: 61%
- kinase still bound, per cent of control [43]: 81%

SMILES: CN(C)C/C=C/C(=O)Nc1cccc(C(=O)Nc2ccc(Nc3nccc(/C(C#N)=C4\Nc5ccccc5S4)n3)cc2)c1
- kinase still bound, per cent of control [1]: 68%
- kinase still bound, per cent of control [2]: 100%
- kinase still bound, per cent of control [3]: 79%
- kinase still bound, per cent of control [4]: 100%
- kinase still bound, per cent of control [5]: 100%
- kinase still bound, per cent of control [6]: 64%
- kinase still bound, per cent of control [7]: 95%
- kinase still bound, per cent of control [8]: 100%
- kinase still bound, per cent of control [9]: 99%
- kinase still bound, per cent of control [10]: 100%
- kinase still bound, per cent of control [11]: 100%
- kinase still bound, per cent of control [12]: 100%
- kinase still bound, per cent of control [13]: 51%
- kinase still bound, per cent of control [14]: 100%
- kinase still bound, per cent of control [15]: 100%
- kinase still bound, per cent of control [16]: 100%
- kinase still bound, per cent of control [17]: 100%
- kinase still bound, per cent of control [18]: 100%
- kinase still bound, per cent of control [19]: 100%
- kinase still bound, per cent of control [20]: 100%
- kinase still bound, per cent of control [21]: 21%
- kinase still bound, per cent of control [22]: 100%
- kinase still bound, per cent of control [23]: 100%
- kinase still bound, per cent of control [24]: 17%
- kinase still bound, per cent of control [25]: 100%
- kinase still bound, per cent of control [26]: 100%
- kinase still bound, per cent of control [27]: 100%
- kinase still bound, per cent of control [28]: 100%
- kinase still bound, per cent of control [29]: 100%
- kinase still bound, per cent of control [30]: 96%
- kinase still bound, per cent of control [31]: 100%
- kinase still bound, per cent of control [32]: 76%
- kinase still bound, per cent of control [33]: 85%
- kinase still bound, per cent of control [34]: 100%
- kinase still bound, per cent of control [35]: 100%
- kinase still bound, per cent of control [36]: 92%
- kinase still bound, per cent of control [37]: 99%
- kinase still bound, per cent of control [38]: 100%
- kinase still bound, per cent of control [39]: 100%
- kinase still bound, per cent of control [40]: 100%
- kinase still bound, per cent of control [41]: 49%
- kinase still bound, per cent of control [42]: 100%
- kinase still bound, per cent of control [43]: 87%
